We go through eleven molecules from patent publication US10271552B2, “Heterocyclic compounds as pesticides” (Bayer CropScience Aktiengesellschaft, priority 2015, dated 2019).

Holding throughout (type): in vivo
One data set deals with Diabrotica balteata. Nature of the data set: Diabrotica balteata spray test. The note with it: 160 μg/well; germinated wheat seeds, larvae; after 7 days. The protocol:
Diabrotica Balteata—Spray Test
(§1) Solvent: 78.0 parts by weight of acetone • • 1.5 parts by weight of dimethylformamide
(§2) Emulsifier: alkylarylpolyglycol ether
To produce a suitable preparation of active compound, 1 part by weight of active compound is mixed with the stated amount of solvent, and the concentrate is diluted with water, containing an emulsifier concentration of 1000 ppm, to the desired concentration. Further test concentrations are prepared by dilution with emulsifier containing water.
Soaked wheat seeds (Triticum aestivum) are placed in a multiple well plate filled with agar and some water and are incubated for 1 day to germinate (5 seeds per well). The germinated wheat seeds are sprayed with a test solution containing the desired concentration of the active ingredient. Afterwards each unit is infected with 10-20 larvae of the banded cucumber beetle (Diabrotica balteata).
After 7 days efficacy in % is determined. 100% means all the seedlings have grown up like in the untreated, uninfected control; 0% means none of the seedlings have grown.

Data set [1] concerns Ctenocephalides felis. Briefly: Ctenocephalides felis in-vitro contact test, adult cat flea. The conditions noted are these: 5 μg/cm^2 (=500 g/ha), after 48 hours. Here is the method:
Ctenocephalides felis—In-Vitro Contact Tests Adult Cat Flea
9 mg compound is solved in 1 ml acetone and diluted with acetone to the desired concentration. 250 μl of the test solution is filled in 25 ml glass test tubes and homogeneously distributed on the inner walls by rotation and tilting on a shaking device (2 h at 30 rpm). With a compound concentration of 900 ppm, an inner surface of 44.7 cm^2 and a homogeneous distribution, a dose of 5 μg/cm^2 is achieved.
After the solvent has evaporated, each test tube is filled with 5-10 adult cat fleas (Ctenocephalides felis), closed with a perforated lid and incubated in a lying position at room temperature and relative humidity. After 48 hours efficacy is determined. The fleas are patted on the ground of the tubes and are incubated on a heating plate at 45-50° C. for at most 5 minutes. Immotile or uncoordinated moving fleas, which are not able to escape the heat by climbing upwards, are marked as dead or moribund.
An efficacy of 100% means all fleas are dead or moribund; 0% means no fleas are dead or moribund.

Data set [2] concerns Ctenocephalides felis. Nature of the data set: whole plant or invertebrate. The note with it: po, 48 h. Here is the method:
Ctenocephalides felis—Oral Test
(§3) Solvent: dimethyl sulfoxide
To produce a suitable preparation of active compound, 10 mg of active compound are dissolved in 0.5 ml solvent, and the concentrate is diluted with cattle blood to the desired concentration.
Approximately 20 adult unfed cat fleas (Ctenocephalides felis) are placed in flea chambers. The blood chamber, sealed with parafilm on the bottom, are filled with cattle blood supplied with compound solution and placed on the gauze covered top of the flea chamber, so that the fleas are able to suck the blood. The blood chamber is heated to 37° C. whereas the flea chamber is kept at room temperature.
After 2 days mortality in % is determined. 100% means all the fleas have been killed; 0% means none of the fleas have been killed.

Another data set deals with Boophilus microplus. Nature of the data set: Boophilus microplus injection test. The note with it: 20 μg/animal injected; adult engorged female ticks; after 7 days. The protocol: Boophilus microplus—Injection Test
as §3
To produce a suitable preparation of active compound, 10 mg of active compound are dissolved in 0.5 ml solvent, and the concentrate is diluted with solvent to the desired concentration.
Five adult engorged female ticks (Boophilus microplus) are injected with 1 μl compound solution into the abdomen. The ticks are transferred into replica plates and incubated in a climate chamber.
After 7 days egg deposition of fertile eggs is monitored. Eggs where fertility is not visible are stored in a climate chamber till hatching after about 42 days. An efficacy of 100% means all eggs are infertile; 0% means all eggs are fertile.

The test system of the next data set is Lucilia cuprina. Briefly: whole plant or invertebrate. The note with it: 48 h. Here is the method: as §3
10 mg active compound are dissolved in 0.5 ml Dimethylsulfoxid. Serial dilutions are made to obtain the desired rates.
Approximately 20 1st instar larvae of the Australian sheep blowfly (Lucilia cuprina) are transferred into a test tube containing minced horse meat and compound solution of the desired concentration.
After 2 days mortality in % is determined. 100% means all the larvae have been killed; 0% means none of the larvae have been killed.

Another data set deals with Nilaparvata lugens. Briefly: Nilaparvata lugens spray test (solvent 52.5 acetone / 7 dimethylformamide). The conditions noted are these: 96 h, rice plants, larvae, after 4 days. The protocol:
Nilaparvata lugens—Spray Test
(§4) Solvent: 52.5 parts by weight of acetone • 7 parts by weight of dimethylformamide
(§5) Emulsifier: alkylaryl polyglycolether
To produce a suitable preparation of active compound, 1 part by weight of active compound is mixed with the stated amount of solvents and is diluted with water, containing an emulsifier concentration of 1000 ppm, to the desired concentration. Further test concentrations are prepared by dilution with emulsifier containing water. Ammonium salt and/or penetration enhancer in a dosage of 1000 ppm are added to the desired concentration if necessary.
Rice plants (Oryza sativa) are treated by being sprayed with the desired concentration of the active compound and are infested with larvae of the brown planthopper (Nilaparvata lugens).
After 4 days mortality in % is determined. 100% means all planthoppers have been killed and 0% means none of the planthoppers have been killed.

The test system of another data set is Myzus persicae. Nature of the data set: Myzus persicae spray test. The conditions noted are these: foliar, Chinese cabbage leaf disks, all instars, after 5-6 days. The protocol: Myzus persicae—Spray Test
(§6) Solvent: 78.0 parts by weight acetone • 1.5 parts by weight dimethylformamide
as §2
(§7) To produce a suitable preparation of active compound, 1 part by weight of active compound is mixed with the stated amount of solvents and is diluted with water, containing an emulsifier concentration of 1000 ppm, to the desired concentration. Further test concentrations are prepared by dilution with emulsifier containing water.
Chinese cabbage (Brassica pekinensis) leaf disks infected with all instars of the green peach aphid (Myzus persicae), are sprayed with a preparation of the active ingredient of the desired concentration.
After 5-6 days mortality in % is determined. 100% means all aphids have been killed and 0% means none of the aphids have been killed.

A further data set concerns Meloidogyne incognita. Nature of the data set: Meloidogyne incognita test. The note with it: 20 ppm; eggs and larvae, salad seeds in sand; after 14 days. The protocol: Meloidogyne incognita—Test
Solvent: 125.0 parts by weight of acetone
To produce a suitable preparation of active compound, 1 part by weight of active compound is mixed with the stated amount of solvent, and the concentrate is diluted with water to the desired concentration.
Vessels are filled with sand, a solution of the active ingredient, a suspension containing eggs and larvae of the southern root-knot nematode (Meloidogyne incognita) and salad seeds. The salad seeds germinate and the seedlings grow. Galls develop in the roots.
After 14 days the nematicidal activity is determined on the basis of the percentage of gall formation. 100% means no galls were found and 0% means the number of galls found on the roots of the treated plants was equal to that in untreated control plants.

For another data set, the system named is Phaedon cochleariae. Nature of the data set: Phaedon cochleariae spray test. The note with it: foliar, 168 h, Chinese cabbage leaf disks, larvae, after 7 days. The protocol:
Phaedon cochleariae—Spray Test
as §1, §2, §7
Chinese cabbage (Brassica pekinensis) leaf disks are sprayed with a preparation of the active ingredient of the desired concentration. Once dry, the leaf disks are infested with mustard beetle larvae (Phaedon cochleariae).
After 7 days mortality in % is determined. 100% means all beetle larvae have been killed and 0% means none of the beetle larvae have been killed.

The subject of another data set is Plutella xylostella. Briefly: Plutella xylostella spray test. The conditions noted are these: 100 ppm; cabbage leaves, larvae; after 7 days. Here is the method:
Plutella xylostella—Spray Test
Solvent: 14 parts by weight of dimethylformamide
Emulsifier: alkylaryl polyglycol ether
To produce a suitable preparation of active compound, 1 part by weight of active compound is mixed with the stated amount of solvent and is diluted with water, containing an emulsifier concentration of 1000 ppm, to the desired concentration. Further test concentrations are prepared by dilution with emulsifier containing water.
Cabbage leaves (Brassica oleracea) are treated by being sprayed with the preparation of the active compound of the desired concentration and are infested with larvae of the diamondback moth (Plutella xylostella).
After 7 days, mortality in % is determined. 100% means all the caterpillars have been killed and 0% means none of the caterpillars have been killed.

For a further data set, the system named is Haemonchus contortus. Nature of the data set: Haemonchus contortus test. The note with it: for larval mortality (efficacy): 20 ppm, larvae, after 5 days. The protocol: Haemonchus contortus—Test
as §3
To produce a suitable preparation of active compound, 10 mg of active compound are dissolved in 0.5 ml solvent, and the concentrate is diluted with “Ringer's solution” to the desired concentration.
Approximately 40 larvae of the red stomach worm (Haemonchus contortus) are transferred into a test tube containing compound solution.
After 5 days the percentage of larval mortality is recorded. 100% efficacy means all larvae are killed, 0% efficacy means no larvae are killed.

For the next data set, the system named is Tetranychus urticae. Nature of the data set: Tetranychus urticae spray test OP-resistant. The conditions noted are these: foliar, 144 h, French bean leaf disks, all instars, after 6 days. The protocol: Tetranychus urticae—Spray Test OP-Resistant
as §6, §2, §7
French bean (Phaseolus vulgaris) leaf disks infected with all instars of the two spotted spidermite (Tetranychus urticae), are sprayed with a preparation of the active ingredient of the desired concentration.
After 6 days mortality in % is determined. 100% means all spider mites have been killed and 0% means none of the spider mites have been killed.

In another data set the test system is Nezara viridula. Nature of the data set: Nezara viridula spray test (solvent 52.5 acetone / 7 dimethylformamide). The note with it: 96 h, barley plants, larvae, after 4 days. The protocol: Nezara viridula—Spray Test
as §4, §5
To produce a suitable preparation of active compound, 1 part by weight of active compound is mixed with the stated amount of solvent, and the concentrate is diluted with water, containing an emulsifier concentration of 1000 ppm, to the desired concentration. Ammonium salt and/or penetration enhancer in a dosage of 1000 ppm are added to the desired concentration if necessary.
Barley plants (Hordeum vulgare) infested with larvae of the southern green stink bug (Nezara viridula) are sprayed with a test solution containing the desired concentration of the active ingredient.
After 4 days mortality in % is determined. 100% means all the stink bugs have been killed; 0% means none of the stink bugs have been killed.

Bounds are passed on as bounds.

Broadly, the mortality is the share of the test organisms that died. Take `O=C(Nc1nc(-c2c(F)cccc2F)ns1)c1cccnc1C(F)(F)F` [Compound I-1-6, N-[3-(2,6-difluorophenyl)-1,2,4-thiadiazol-5-yl]-2-(trifluoromethyl)nicotinamide]: the “efficacy (seedling growth)” value in the data set on Diabrotica balteata amounted to 80%. Also, in the data set on Ctenocephalides felis [1], the “efficacy (fleas dead or moribund)” value is 100%. Further, the mortality at 100 ppm in the data set on Ctenocephalides felis [2] and in the data set with Lucilia cuprina was 100% in each case. The “efficacy (infertile eggs)” value with Boophilus microplus worked out at 100%. For the same molecule, the mortality at 500 g/ha is ≥ 80% in the data set on Nilaparvata lugens and ≥ 70% with Myzus persicae. The “nematicidal activity (gall formation)” value in the data set with Meloidogyne incognita came out at 100%.

On to `O=C(Nc1nc(-c2ncc(C(F)(F)F)cc2Cl)ns1)c1cccnc1C(F)(F)F` [Compound I-2-3, N-{3-[3-Chloro-5-(trifluoromethyl)pyridin-2-yl]-1,2,4-thiadiazol-5-yl}-2-(trifluoromethyl)nicotinamide], for which the mortality at 500 g/ha with Phaedon cochleariae is ≥ 80%; in the data set with Myzus persicae it was ≥ 70%.

Turning to `O=C(Nc1nc(-c2c(F)cccc2F)ns1)c1cccc(F)c1C(F)(F)F` [Compound I-1-11], the mortality in the data set with Plutella xylostella is 100%. In addition, the “efficacy (infertile eggs)” value in the data set with Boophilus microplus is 100%.

For the molecule `O=C(Nc1nc(-c2c(F)cccc2F)ns1)c1ccccc1F` [Compound I-1-2], in the data set with Haemonchus contortus, the “larval mortality (efficacy)” value amounted to 100%. Also, in the data set with Meloidogyne incognita, the “nematicidal activity (gall formation)” value is 100%.

With `O=C(Nc1nc(-c2c(F)cccc2F)ns1)c1cccnc1C(F)(F)F.[Na+]` [Compound I-1-30, Sodium [3-(2,6-difluorophenyl)-1,2,4-thiadiazol-5-yl]{[2-(trifluoromethyl)pyridin-3-yl]carbonyl}azanide], the figures for the mortality at 500 g/ha with Tetranychus urticae, in the data set with Phaedon cochleariae and in the data set with Nezara viridula were ≥ 70%, ≥ 80% and ≥ 90%, respectively. Moreover, the “efficacy (fleas dead or moribund)” value with Ctenocephalides felis [1] is 90%. In addition, the “efficacy (infertile eggs)” value with Boophilus microplus turned out to be 100%. Moreover, the “nematicidal activity (gall formation)” value in the data set with Meloidogyne incognita is on record as 100%.

For `O=C(Nc1nc(-c2c(F)cccc2F)ns1)c1ccccc1[N+](=O)[O-]` [Compound I-1-10], the mortality in the data set with Plutella xylostella is reported as 100%. Also, the “nematicidal activity (gall formation)” value in the data set with Meloidogyne incognita turned out to be 100%.

Take `O=C(Nc1nc(-c2ccc(F)cc2F)ns1)c1cccnc1C(F)(F)F` [Compound I-1-56]: the “larval mortality (efficacy)” value in the data set on Haemonchus contortus was 80%.

On to `O=C(Nc1nc(-c2c(C(F)(F)F)cccc2C(F)(F)F)ns1)c1cccnc1C(F)(F)F` [Compound I-1-65, N-{3-[2,6-Bis(trifluoromethyl)phenyl]-1,2,4-thiadiazol-5-yl}-2-(trifluoromethyl)nicotinamide], for which the results for the mortality at 500 g/ha with Nezara viridula and in the data set on Nilaparvata lugens were ≥ 90% and ≥ 80%, respectively.

With `O=C(Nc1nc(-c2c(F)cccc2F)ns1)c1ccccc1Br` [Compound I-1-5, 2-Bromo-N-[3-(2,6-difluorophenyl)-1,2,4-thiadiazol-5-yl]benzamide], the mortality at 500 g/ha with Tetranychus urticae is ≥ 70%; with Phaedon cochleariae it was ≥ 80%. Also, the “efficacy (infertile eggs)” value with Boophilus microplus was 100%. The same molecule displayed a mortality at 100 ppm in the data set on Lucilia cuprina of 70 to 100%. The “nematicidal activity (gall formation)” value in the data set on Meloidogyne incognita worked out at 90%.

Regarding `O=C(Nc1nc(-c2ncccc2Cl)ns1)c1ccccc1Cl` [Compound I-2-6, 2-Chloro-N-[3-(3-chloropyridin-2-yl)-1,2,4-thiadiazol-5-yl]benzamide], the mortality at 500 g/ha was ≥ 70% with Tetranychus urticae, ≥ 80% in the data set on Phaedon cochleariae and ≥ 80% in the data set on Nilaparvata lugens.

Take `O=C(Nc1nc(-c2c(F)cccc2F)ns1)c1c(F)cccc1F` [Compound I-1-1, N-[3-(2,6-difluorophenyl)-1,2,4-thiadiazol-5-yl]-2,6-difluorobenzamide]: in the data set with Haemonchus contortus (Haemonchus contortus, 120 h, read-out: larval mortality (efficacy)), the mortality at 20 ppm stood at 80%. Also, the mortality at 500 g/ha in the data set with Tetranychus urticae is ≥ 70%; in the data set on Phaedon cochleariae, ≥ 80%; in the data set on Nezara viridula, ≥ 90%. The same molecule showed a mortality at 100 ppm in the data set on Ctenocephalides felis [2] of 95%. Moreover, the “efficacy (infertile eggs)” value in the data set on Boophilus microplus was determined as 100%. Also, the “nematicidal activity (gall formation)” value in the data set on Meloidogyne incognita came to 90%.
